Literature values, collected in US6921840B1 (The Trustees of the University of Pennsylvania, priority 1999, dated 2005).

Legend:
[1] = at 2 to 6 hr, Biegon et al. 1993; cited from earlier work
serotonin uptake (SERT) = target: T1, serotonin uptake (SERT) (Rattus norvegicus, UniProt P31652); conditions: taken from Ferris et al. 1995; read-out: IC50 for inhibition on substrate uptake, SERT; cited from earlier work
T1 construct: host or cells: rat brain synaptosomes

[2] = target: T2, norepinephrine uptake (NET) (Rattus norvegicus, UniProt Q63380); conditions: cited from earlier work
T2 construct: host or cells: rat brain synaptosomes

DAT = DAT (Rattus norvegicus, UniProt P23977); conditions: taken from Ferris et al. 1995; read-out: IC50 for inhibition on substrate uptake, DAT; cited from earlier work
Sequence of DAT (P23977 whole entry): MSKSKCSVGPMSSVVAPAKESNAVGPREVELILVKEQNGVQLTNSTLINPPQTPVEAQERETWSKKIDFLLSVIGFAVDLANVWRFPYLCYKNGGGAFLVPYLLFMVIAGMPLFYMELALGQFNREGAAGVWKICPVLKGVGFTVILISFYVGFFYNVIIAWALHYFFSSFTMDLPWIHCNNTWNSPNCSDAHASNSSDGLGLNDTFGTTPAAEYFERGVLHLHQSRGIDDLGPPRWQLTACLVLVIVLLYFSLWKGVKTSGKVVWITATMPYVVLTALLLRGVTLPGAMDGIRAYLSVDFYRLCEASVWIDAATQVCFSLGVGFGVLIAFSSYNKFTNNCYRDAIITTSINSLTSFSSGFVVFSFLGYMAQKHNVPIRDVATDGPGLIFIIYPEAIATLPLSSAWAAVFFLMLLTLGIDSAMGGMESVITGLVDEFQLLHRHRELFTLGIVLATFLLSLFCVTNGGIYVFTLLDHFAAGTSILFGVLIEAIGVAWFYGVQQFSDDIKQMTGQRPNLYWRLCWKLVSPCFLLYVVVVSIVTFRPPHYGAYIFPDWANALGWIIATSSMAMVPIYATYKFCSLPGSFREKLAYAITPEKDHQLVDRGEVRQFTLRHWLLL

T2 sequence (Q63380 1-617): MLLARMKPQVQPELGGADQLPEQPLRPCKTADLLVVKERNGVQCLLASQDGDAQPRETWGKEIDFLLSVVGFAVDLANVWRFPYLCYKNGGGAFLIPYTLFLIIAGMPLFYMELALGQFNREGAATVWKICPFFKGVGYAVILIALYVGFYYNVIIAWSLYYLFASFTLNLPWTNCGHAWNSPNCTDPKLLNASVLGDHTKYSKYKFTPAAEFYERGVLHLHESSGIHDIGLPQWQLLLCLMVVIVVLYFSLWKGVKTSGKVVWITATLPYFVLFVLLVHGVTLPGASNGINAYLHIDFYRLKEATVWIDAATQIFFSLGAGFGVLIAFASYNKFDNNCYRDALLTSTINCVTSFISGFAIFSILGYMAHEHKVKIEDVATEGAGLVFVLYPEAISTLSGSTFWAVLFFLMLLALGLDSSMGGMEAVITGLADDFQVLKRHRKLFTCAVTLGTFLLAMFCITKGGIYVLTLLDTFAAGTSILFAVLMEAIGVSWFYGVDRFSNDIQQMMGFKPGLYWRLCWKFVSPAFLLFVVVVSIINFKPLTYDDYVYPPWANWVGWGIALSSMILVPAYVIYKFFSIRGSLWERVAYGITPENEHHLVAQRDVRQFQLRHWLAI
T1 sequence (P31652 whole entry): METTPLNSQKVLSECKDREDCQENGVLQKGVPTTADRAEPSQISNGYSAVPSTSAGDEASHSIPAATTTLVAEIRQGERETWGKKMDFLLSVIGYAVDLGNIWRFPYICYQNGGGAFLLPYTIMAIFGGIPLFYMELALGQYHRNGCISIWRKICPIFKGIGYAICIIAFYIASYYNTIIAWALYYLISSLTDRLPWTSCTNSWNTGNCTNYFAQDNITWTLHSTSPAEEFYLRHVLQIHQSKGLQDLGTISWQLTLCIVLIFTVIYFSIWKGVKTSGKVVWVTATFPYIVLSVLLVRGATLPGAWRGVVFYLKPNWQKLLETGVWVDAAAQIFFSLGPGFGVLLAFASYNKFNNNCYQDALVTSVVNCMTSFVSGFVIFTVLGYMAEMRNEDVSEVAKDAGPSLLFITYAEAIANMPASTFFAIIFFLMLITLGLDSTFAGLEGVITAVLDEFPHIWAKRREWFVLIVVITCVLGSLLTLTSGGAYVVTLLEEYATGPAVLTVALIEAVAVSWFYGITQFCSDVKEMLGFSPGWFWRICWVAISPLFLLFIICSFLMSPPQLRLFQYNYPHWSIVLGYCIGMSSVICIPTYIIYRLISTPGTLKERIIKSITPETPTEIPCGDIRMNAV

| Structure (SMILES) | specific regional binding ratio, hypothalamus [1] | IC50 (serotonin uptake (SERT)) [nM] | Ki ([2]; rat brain synaptosomes) [nM] | IC50 ([2]; taken from Ferris et al. 1995, read-out: IC50 for inhibition on substrate uptake, NET) [nM] | IC50 (DAT) [nM] |
| --- | --- | --- | --- | --- | --- |
| O=[N+]([O-])c1ccc2nc(N3CCNCC3)ccc2c1I [[^123I]5-I-6-NO2-quipazine, 5-iodo-6-nitroquipazine] | 4.0 | – | – | – | – |
| CN(C)Cc1ccccc1Sc1ccc(Cl)cc1CO [403U76, 5-chloro-2-((2-((dimethyl-amino)methyl)phenyl)thio)benzyl alcohol] | – | 2.1 ± 0.4 | 55 | 55 ± 10 | > 1000 |
